We go through 28 molecules from ChEMBL document CHEMBL3046249, “Synthesis and antifungal activity of cinnamic acid esters” (1996).

Common to all, as to format: functional
The subject of assay [1] is Athelia rolfsii. Briefly: Antimicrobial activity against Athelia rolfsii assessed as growth inhibition at 100 ppm by agar dilution method. As to conditions: Agroathelia rolfsii; read-out: GI. For orientation: In agar dilution, organisms are placed on agar that contains the substance at set levels.
The test system of assay [2] is Pythium. Description: Antimicrobial activity against Pythium sp. assessed as growth inhibition at 100 ppm by agar dilution method. As to conditions: read-out: GI.
For assay [3], the system named is Athelia rolfsii. Briefly: Antimicrobial activity against Athelia rolfsii assessed as growth inhibition at 10 ppm by agar dilution method. As to conditions: Agroathelia rolfsii; read-out: GI.
The subject of assay [4] is Pythium. Briefly: Antimicrobial activity against Pythium sp. assessed as growth inhibition at 10 ppm by agar dilution method. As to conditions: read-out: GI.

On to `C=CCc1ccc(OC(=O)/C=C/c2ccccc2)c(OC)c1`, for which the results for the inhibition of growth at 100 ppm in the assay with Athelia rolfsii [1] and in the assay on Pythium [2] were 22% and 28%, respectively.

Turning to `CCCOC(=O)/C=C/c1ccc(O)cc1`, the values for the inhibition of growth at 100 ppm in the assay on Athelia rolfsii [1] and in the assay with Pythium [2] were 70% and 91%, respectively. For the same molecule, the figures for the inhibition of growth at 10 ppm in the assay on Athelia rolfsii [3] and in the assay with Pythium [4] were 9% and 31%, respectively.

Take `CCOC(=O)/C=C/c1ccc(O)c(OC)c1` [ETHYL FERULATE]: the inhibition of growth at 100 ppm in the assay with Athelia rolfsii [1] worked out at 43%; with Pythium [2] it was 50%.

Take `COC(=O)/C=C/c1ccc(O)c(OC)c1`: the values for the inhibition of growth at 100 ppm in the assay on Athelia rolfsii [1] and in the assay with Pythium [2] were 37% and 0%, respectively.

`O=C(O)/C=C/c1ccccc1` [CINNAMIC ACID]: the inhibition of growth at 100 ppm in the assay on Athelia rolfsii [1] was 100%; with Pythium [2] it was 97%. In addition, the inhibition of growth at 10 ppm with Athelia rolfsii [3] stood at 24%; in the assay with Pythium [4] it was 12%.

In the case of `CCCCOC(=O)/C=C/c1ccc(O)cc1`, the inhibition of growth at 100 ppm in the assay on Athelia rolfsii [1] was found to be 81%; with Pythium [2] it was 71%. The inhibition of growth at 10 ppm in the assay on Athelia rolfsii [3] was 29%; in the assay on Pythium [4], 35%.

Take `CCCCCCCOC(=O)/C=C/c1ccccc1` [HEPTYL CINNAMATE]: the inhibition of growth at 100 ppm turned out to be 10% with Athelia rolfsii [1] and 42% in the assay on Pythium [2].

Consider `O=C(O)/C=C/c1ccc(O)cc1` [COUMARIC ACID], for which the inhibition of growth at 100 ppm stood at 46% in the assay with Athelia rolfsii [1] and 10% in the assay with Pythium [2].

On to `C=CCc1ccc(OC(=O)/C=C/c2ccc(O)c(OC)c2)c(OC)c1`, for which the inhibition of growth at 100 ppm was found to be 38% in the assay on Athelia rolfsii [1] and 31% with Pythium [2].

On to `CCOC(=O)/C=C/c1ccc(O)cc1` [ETHYL P-COUMARATE], for which the inhibition of growth at 100 ppm with Athelia rolfsii [1] was determined as 45%; in the assay with Pythium [2] it was 87%. The inhibition of growth at 10 ppm in the assay on Athelia rolfsii [3] turned out to be 8%; with Pythium [4], 29%.

`CC(C)OC(=O)/C=C/c1ccc(O)cc1` [ISOPROPYL 3-(4-HYDROXYPHENYL)ACRYLATE]: the values for the inhibition of growth at 100 ppm in the assay with Athelia rolfsii [1] and in the assay on Pythium [2] were 84% and 98%, respectively. Besides, the figures for the inhibition of growth at 10 ppm with Athelia rolfsii [3] and with Pythium [4] were 10% and 41%, respectively.

For the molecule `CCCCCCCCOC(=O)/C=C/c1ccccc1` [OCTYL CINNAMATE], the inhibition of growth at 100 ppm in the assay on Athelia rolfsii [1] is 13%; with Pythium [2], 56%.

Turning to `COc1cc(/C=C/C(=O)Oc2ccc(C)cc2C(C)C)ccc1O`, the inhibition of growth at 100 ppm is 37% in the assay with Athelia rolfsii [1] and 49% in the assay on Pythium [2].

Consider `COC(=O)/C=C/c1ccccc1` [E-METHYL CINNAMATE], for which the figures for the inhibition of growth at 100 ppm in the assay with Athelia rolfsii [1] and with Pythium [2] were 53% and 66%, respectively.

In the case of `COc1cc(/C=C/C(=O)Oc2cc(C)ccc2C(C)C)ccc1O`, the inhibition of growth at 100 ppm came to 58% in the assay with Athelia rolfsii [1] and 9% in the assay on Pythium [2].

Turning to `CC(C)OP(=O)(OC(C)C)SCc1ccccc1` [IPROBENFOS], the values for the inhibition of growth at 100 ppm in the assay on Athelia rolfsii [1] and with Pythium [2] were 100% and 89%, respectively. Besides, the inhibition of growth at 10 ppm is 69% with Athelia rolfsii [3] and 42% in the assay on Pythium [4].

Take `O=C(/C=C/c1ccc(O)cc1)Oc1ccccc1`: the figures for the inhibition of growth at 100 ppm with Athelia rolfsii [1] and with Pythium [2] were 53% and 80%, respectively. For the same molecule, the inhibition of growth at 10 ppm in the assay with Pythium [4] came to 16%.

As for `CCCOC(=O)/C=C/c1ccc(O)c(OC)c1`, the inhibition of growth at 100 ppm in the assay on Athelia rolfsii [1] amounted to 26%; in the assay with Pythium [2] it was 9%.

Take `Cc1ccc(C(C)C)c(OC(=O)/C=C/c2ccccc2)c1`: the inhibition of growth at 100 ppm in the assay on Athelia rolfsii [1] worked out at 45%; in the assay with Pythium [2], 54%.

Regarding `O=C(/C=C/c1ccccc1)OCCc1ccccc1` [PHENETHYL CINNAMATE], the inhibition of growth at 100 ppm in the assay with Athelia rolfsii [1] was 22%; in the assay on Pythium [2], 28%.

Regarding `COc1cc(/C=C/C(=O)O)ccc1O` [FERULATE], the inhibition of growth at 100 ppm stood at 54% with Athelia rolfsii [1] and 48% in the assay on Pythium [2].

For `CC(C)=CCCC(C)CCOC(=O)/C=C/c1ccc(O)cc1` (stereo not given), the inhibition of growth at 100 ppm in the assay on Athelia rolfsii [1] came out at 55%; in the assay on Pythium [2], 63%.

For the molecule `Cc1ccc(OC(=O)/C=C/c2ccc(O)cc2)c(C(C)C)c1`, the inhibition of growth at 100 ppm in the assay on Athelia rolfsii [1] came out at 38%; in the assay with Pythium [2], 36%.

With `CC(C)=CCCC(C)CCOC(=O)/C=C/c1ccccc1` (stereo not given), the inhibition of growth at 100 ppm in the assay with Athelia rolfsii [1] and in the assay on Pythium [2] was 0% in each case.

Regarding `COC(=O)/C=C/c1ccc(O)cc1` [METHYL P-HYDROXYCINNAMATE], the inhibition of growth at 100 ppm with Athelia rolfsii [1] is 41%; in the assay with Pythium [2], 54%. For the same molecule, the inhibition of growth at 10 ppm with Pythium [4] was found to be 0%.

As for `COc1cc(/C=C/C(=O)OC(C)C)ccc1O`, the inhibition of growth at 100 ppm in the assay on Athelia rolfsii [1] was found to be 38%; in the assay on Pythium [2], 18%.

As for `CCCCOC(=O)/C=C/c1ccc(O)c(OC)c1`, the inhibition of growth at 100 ppm with Athelia rolfsii [1] and in the assay on Pythium [2] was 0% throughout.

In the case of `Cc1ccc(C(C)C)c(OC(=O)/C=C/c2ccc(O)cc2)c1`, the figures for the inhibition of growth at 100 ppm in the assay on Athelia rolfsii [1] and in the assay on Pythium [2] were 31% and 33%, respectively.
